Experimental data reported in PubChem BioAssay AID1963825 (Molecular Pharmacology Branch, DTP, NCI, 2024).
pIC50: −log10 of the molar value.

Test: Anticancer human tumor 997537-175-T-J1-PDC patient-derived colon adenocarcinoma cell line growth inhibition [POLQ]
Details: 997537-175-T-J1-PDC complex spheroid viability, combination with POLQ inhibitors; for pIC50: curve of first compound; for viability, T/C: stronger effect = lower value; active = viability on the fitted dose curve at most 10% of control; inactive = the rest
In short: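 Patient-derived tumour cells were co-cultured with HUVEC and mesenchymal stem cells as multicellular spheroids at 37 °C. They were treated with POLQ inhibitors (novobiocin, ART-558, RP6685) alone or combined with other agents. Top concentrations were at or near clinical Cmax (otherwise 10 microM; SN-38 at 1 microM), decreasing in half-log steps.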

[1] = second compound 0.0316 µM, first compound 0.0316 µM
[2] = second compound 0.0316 µM, first compound 0.1 µM
[3] = second compound 0.0316 µM, first compound 0.316 µM
[4] = second compound 0.0316 µM, first compound 1 µM
[5] = second compound 0.0316 µM, first compound 3.16 µM
[6] = second compound 0.0316 µM, first compound 10 µM
[7] = second compound 0.1 µM, first compound 0.0316 µM
[8] = second compound 0.1 µM, first compound 0.1 µM
[9] = second compound 0.1 µM, first compound 0.316 µM
[10] = second compound 0.1 µM, first compound 1 µM
[11] = second compound 0.1 µM, first compound 3.16 µM
[12] = second compound 0.1 µM, first compound 10 µM
[13] = second compound 0.316 µM, first compound 0.0316 µM
[14] = second compound 0.316 µM, first compound 0.1 µM
[15] = second compound 0.316 µM, first compound 0.316 µM
[16] = second compound 0.316 µM, first compound 1 µM
[17] = second compound 0.316 µM, first compound 3.16 µM
[18] = second compound 0.316 µM, first compound 10 µM
[19] = second compound 1 µM, first compound 0.0316 µM
[20] = second compound 1 µM, first compound 0.1 µM
[21] = second compound 1 µM, first compound 0.316 µM
[22] = second compound 1 µM, first compound 1 µM
[23] = second compound 1 µM, first compound 3.16 µM
[24] = second compound 1 µM, first compound 10 µM
[25] = second compound 3.16 µM, first compound 0.0316 µM
[26] = second compound 3.16 µM, first compound 0.1 µM
[27] = second compound 3.16 µM, first compound 0.316 µM
[28] = second compound 3.16 µM, first compound 1 µM
[29] = second compound 3.16 µM, first compound 3.16 µM
[30] = second compound 3.16 µM, first compound 10 µM
[31] = second compound 10 µM, first compound 0.0316 µM
[32] = second compound 10 µM, first compound 0.1 µM
[33] = second compound 10 µM, first compound 0.316 µM
[34] = second compound 10 µM, first compound 1 µM
[35] = second compound 10 µM, first compound 3.16 µM
[36] = second compound 10 µM, first compound 10 µM
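Also: luminescence signal used as a surrogate for viable cells; spheroids exposed to drugs for seven days before readout.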

COc1cc(C2c3cc4c(cc3C(OC3OC5COC(C)OC5C(O)C3O)C3COC(=O)C23)OCO4)cc(OC)c1O (centres undefined) + Nc1ccc(C#CCN(C(=O)Cc2ncc(C(F)(F)F)cc2C(F)(F)F)c2ccc(F)cc2)nn1
< 5.00: pIC50 (second compound 0.0316 µM) | pIC50 (second compound 0.1 µM) | pIC50 (second compound 0.316 µM) | pIC50 (second compound 1 µM) | pIC50 (second compound 3.16 µM)
5.11: pIC50 (second compound 10 µM)
inactive: viability, T/C [1] 101% | viability, T/C [2] 105% | viability, T/C [3] 93.2% | viability, T/C [4] 94.2% | viability, T/C [5] 68% | viability, T/C [6] 67.7% | viability, T/C [7] 112% | viability, T/C [8] 96.4% | viability, T/C [9] 99.5% | viability, T/C [10] 86% | viability, T/C [11] 65.7% | viability, T/C [12] 66.2% | viability, T/C [13] 92.4% | viability, T/C [14] 99.5% | viability, T/C [15] 86.5% | viability, T/C [16] 83.4% | viability, T/C [17] 75.4% | viability, T/C [18] 69.7% | viability, T/C [19] 92.4% | viability, T/C [20] 96.9% | viability, T/C [21] 97.1% | viability, T/C [22] 81% | viability, T/C [23] 61% | viability, T/C [24] 67.7% | viability, T/C [25] 91.1% | viability, T/C [26] 93.7% | viability, T/C [27] 94.6% | viability, T/C [28] 82.4% | viability, T/C [29] 57.8% | viability, T/C [30] 54.3% | viability, T/C [31] 96% | viability, T/C [32] 104% | viability, T/C [33] 99.5% | viability, T/C [34] 91% | viability, T/C [35] 61.4% | viability, T/C [36] 46.8%

O=C(c1cc(Cc2n[nH]c(=O)c3ccccc23)ccc1F)N1CCN(C(=O)C2CC2)CC1 + Cc1cccc(N(C)C(=O)C2C(O)CCN2c2nc(C)cc(C(F)(F)F)c2C#N)c1
< 5.00: pIC50 (second compound 0.0316 µM) | pIC50 (second compound 0.1 µM) | pIC50 (second compound 0.316 µM) | pIC50 (second compound 1 µM) | pIC50 (second compound 3.16 µM) | pIC50 (second compound 10 µM)
inactive: viability, T/C [1] 107% | viability, T/C [2] 97.5% | viability, T/C [3] 94.8% | viability, T/C [4] 92.3% | viability, T/C [5] 102% | viability, T/C [6] 103% | viability, T/C [7] 91.9% | viability, T/C [8] 108% | viability, T/C [9] 102% | viability, T/C [10] 105% | viability, T/C [11] 101% | viability, T/C [12] 86.2% | viability, T/C [13] 107% | viability, T/C [14] 105% | viability, T/C [15] 109% | viability, T/C [16] 99% | viability, T/C [17] 118% | viability, T/C [18] 110% | viability, T/C [19] 99.1% | viability, T/C [20] 102% | viability, T/C [21] 109% | viability, T/C [22] 97.1% | viability, T/C [23] 100% | viability, T/C [24] 87.5% | viability, T/C [25] 101% | viability, T/C [26] 108% | viability, T/C [27] 92.2% | viability, T/C [28] 92.1% | viability, T/C [29] 97.5% | viability, T/C [30] 103% | viability, T/C [31] 99.3% | viability, T/C [32] 87.3% | viability, T/C [33] 91.1% | viability, T/C [34] 97% | viability, T/C [35] 87.1% | viability, T/C [36] 96.4%
